Measured values: patent publication US20100069393A1, “METHOD OF TREATMENT AND AGENTS USEFUL FOR SAME” (PRANA BIOTECHNOLOGY LIMITED, priority 2006, published 2010)

Tests used:
[1] = In vivo toxicity, visual observations; settings: number of days
[2] = Mice plasma concentration; assay type: in vivo; settings: for Mice plasma concentration (single dose) / Mice plasma concentration at 10 mg/kg: one or two time points (between 30 min and 4 h); for Mice plasma concentration: presence in plasma at one or two time points (between 30 min and 4 h)
[3] = Cytotoxicity: viability of M17 cells; settings: human, M17 neuroblastoma cells, Cytotoxicity (% viable at 1 and 10 uM); for viability at 1 uM: test compound 1 uM; for viability at 10 uM: test compound 10 uM
[4] = Neurotoxicity assay: MTS viability of primary cortical neuronal cultures; assay type: cell-based, mouse; settings: BL6Jx129sv, mouse, primary cortical neuronal cultures, Neuronal cells, read-out: Cytotoxicity (% viable at 1 and 10 uM); for viability at 4 days, 1 uM: test compound 1 uM; for viability at 4 days, 10 uM: test compound 10 uM

Compound | Toxicity at 30 mg/kg [1] | Mice plasma concentration (single dose) [2] | Mice plasma concentration [2] | viability at 1 uM [3] | viability at 10 uM [3] | viability at 4 days, 1 uM [4] | viability at 4 days, 10 uM [4] | Toxicity at 10 mg/kg [1] | Mice plasma concentration at 10 mg/kg [2]
CCCn1cnc2c(O)c(I)ccc2c1=O | 10 days, none | Up to 1096 ng/mL (single dose) | – | – | – | – | – | – | –
Br.CNCc1nc2c(O)c(Cl)cc(Cl)c2c(=O)n1C | 10 days, none | – | Up to 510.4 ng/mL | 96% | 90.6% | – | – | – | –
O=c1c2cccc(O)c2ncn1-c1ccc(Cl)cn1 | 10 days, none | – | Up to 6 ng/mL | 107% | 122% | – | – | – | –
Br.CN(C)Cc1nc2c(O)c(Cl)cc(Cl)c2c(=O)[nH]1 | 10 days, none | – | Up to 642.6 ng/mL | 97.4% | 100% | – | – | – | –
O=C(O)CCCn1cnc2c(O)c(Cl)cc(Cl)c2c1=O | 10 days, none | – | Up to 17008 ng/mL | 110% | 103% | – | – | – | –
O=c1c2c(Cl)cc(Cl)c(O)c2ncn1-c1ccc2[nH]ncc2c1 | 10 days, none | – | Up to 126 ng/mL | 96.2% | 88.9% | – | – | – | –
CCCCc1cnc2c(O)cccn2c1=S | 7 days, 2/4 deaths | – | Up to 57 ng/ml ng/mL | – | – | – | – | – | –
Br.Cc1cccnc1Cn1cnc2c(O)c(Cl)cc(Cl)c2c1=O | 10 days, 3/4 mild signs | – | Up to 439 ng/mL | – | – | 99% | 88% | – | –
CCn1cnc2c(O)c(I)ccc2c1=S | 10 days, none, 1/4 mild signs | – | Up to 400 ng/ml ng/mL | 85.7% | 43% | – | – | – | –
CN(C)Cc1nc2c(O)c(Cl)cc(Cl)c2c(=O)n1CC1CC1.Cl | 10 days, none | – | Up to 1166.6 ng/mL | 94.4% | 74.5% | – | – | – | –
CCn1c(CN(C)C)nc2c(O)c(Cl)cc(Cl)c2c1=O.Cl | 10 days, none | – | Up to 975.9 ng/mL | 99.2% | 102% | – | – | – | –
O=c1c2c(Cl)cc(Cl)c(O)c2ncn1Cc1nc2ccccc2s1 | 10 days, none | – | Up to 166.1 ng/mL | 111% | 80.9% | – | – | – | –
O=c1c2c(Cl)cc(Cl)c(O)c2ncn1CCc1ccccn1 | 10 days, none | – | Up to 59 ng/mL | – | – | 100% | 92% | – | –
CCn1cnc2c(O)c(I)cc(Cl)c2c1=O | 10 days, 2/4 deaths | – | Up to 1802 ng/mL | 101% | 50.4% | – | – | – | –
O=c1[nH]cnc2c(O)c(Cl)cc(Cl)c12 | 3 days, none | Below 100 ng/mL (single dose) | – | – | – | 100% | 93% | – | –
O=c1c2c(Cl)cc(Cl)c(O)c2ncn1Cc1nc2ccccc2[nH]1 | 10 days, none | – | Up to 2796 ng/mL | 102% | 100% | – | – | – | –
O=c1c2cccc(O)c2ncn1Cc1cccc(Cn2cnc3c(O)cccc3c2=O)n1 | 10 days, none | – | Up to 128.4 ng/mL | 117% | 106% | – | – | – | –
CC(C)Cn1cnc2c(O)c(I)ccc2c1=O | – | – | – | 111% | 68.2% | – | – | At 10 mg/kg: 10 days, none | At 10 mg/kg: Up to 309 ng/ml ng/mL
CC(C)n1cnc2c(O)c(I)ccc2c1=O | 10 days, 1/4 deaths | – | Up to 277 ng/ml ng/mL | – | – | – | – | – | –

Compound | Toxicity at 30 mg/kg [1] | Mice plasma concentration (single dose) [2] | Mice plasma concentration [2] | viability at 1 uM [3] | viability at 10 uM [3] | viability at 4 days, 1 uM [4] | viability at 4 days, 10 uM [4] | Toxicity at 10 mg/kg [1] | Mice plasma concentration at 10 mg/kg [2]
O=C(NCc1ccccc1)c1cnc2c(O)cccn2c1=O | 10 days, none | – | Up to 22.2 ng/mL | 92.7% | 97.3% | – | – | – | –
COc1ccc(-n2cnc3c(O)c(Cl)cc(Cl)c3c2=O)nc1 | 10 days, none | Up to 80 ng/mL (single dose) | – | – | – | 122% | 93% | – | –
Br.CN(C)Cc1nc2c(O)c(Cl)cc(Cl)c2c(=O)n1C | 10 days, 1 of 4 mild signs | – | Up to 492.1 ng/mL | 104% | 111% | – | – | – | –
O=c1c2c(Cl)cc(Cl)c(O)c2ncn1CCN1CCOCC1 | 10 days, none | Up to 10 ng/mL (single dose) | – | – | – | 98% | 81% | – | –
Cc1noc(C)c1-n1cnc2c(O)c(Cl)cc(Cl)c2c1=O | 10 days, none | – | Up to 7107 ng/mL | 106% | 94.2% | – | – | – | –
CCCCNC(=O)C1=CN=C2C(O)=C(I)C=CN2C1 | 10 days, none | – | Up to 27,598 ng/ml ng/mL | 85.3% | 63.4% | – | – | – | –
CCCc1cnc2c(O)cccn2c1=O | 10 days, none | – | Up to 690 ng/ml ng/mL | 79.1% | 45.2% | – | – | – | –
O=c1c2c(Cl)cc(Cl)c(O)c2ncn1Cc1cccnc1 | 10 days, none | – | Up to 4023.4 ng/mL | 106% | 95.4% | – | – | – | –
O=c1c2ccc(I)c(O)c2ncn1Cc1ccccn1 | 10 days, none | – | Up to 1538 ng/mL | 93.8% | 84.5% | – | – | – | –
Oc1c(C2CC2)ncc2cccnc12 | 6 days, none | Up to 350 ng/mL (single dose) | – | – | – | 100% | 98% | – | –
CC(C)c1cnc2c(O)cccn2c1=O | 10 days, none | – | Up to 409 ng/ml ng/mL | 99.7% | 45.6% | – | – | – | –
CCc1cnc2c(O)c(I)ccn2c1=O | – | – | – | 82.5% | 23.3% | – | – | At 10 mg/kg 10 days, none | At 10 mg/kg: Up to 7082 ng/mL
O=c1c(-c2ccc(Cl)cc2)cnc2c(O)c(I)ccn12 | 10 days, mild toxic signs | – | Up to 450 ng/mL | – | – | 41% | 33% | – | –
Cc1ccc(-n2cnc3c(O)c(Cl)cc(Cl)c3c2=O)nc1 | 10 days, none | – | Up to 39 ng/mL | – | – | 96% | 83% | – | –
CN1CCCC1CCn1cnc2c(O)c(Cl)cc(Cl)c2c1=O (stereo not drawn) | 10 days, none | Up to 262 ng/mL in mice (single dose) | – | – | – | 105% | 94% | – | –
CN1CCN(n2cnc3c(O)c(Cl)cc(Cl)c3c2=O)CC1 | 10 days, none | – | Up to 207 ng/mL | – | – | 96% | 91% | – | –
CCCn1cnc2c(O)c(I)cc(Cl)c2c1=O | – | – | Up to 4060 ng/mL | 120% | 100% | – | – | – | –
CCn1nccc1-n1cnc2c(O)c(Cl)cc(Cl)c2c1=O | 10 days, none | – | Up to 3896 ng/mL | – | – | 102% | 94% | – | –
